Holding throughout (assay): biochemical
Set-up in all cases: In vitro kinase panel profiling, per cent remaining kinase activity at 10 uM

The target of one assay is T1, Pim-1(h) (Homo sapiens, UniProt P11309).
T1 construct: gene PIM1
The conditions noted are these: atp_concentration=90, read-out: % of control remaining. An excerpt: (§1) We derisk potential for off-target activity by profiling the compound in a CEREP panel, a standard secondary pharmacology assessment, as well as a kinase panel to derisk a potential hinge-binding motif in our leads, and a PARP panel to derisk activity against human […]. Reassuringly, the compounds are selective, with the only off-targets being moderate human CHRM2 and KOR receptors activity associated with ASAP-0011198.

Another assay deals with ALK(h) (Homo sapiens, UniProt Q9UM73). The conditions noted are these: atp_concentration=200, read-out: % of control remaining.
Source text: as §1

A further assay addresses T2, IGF-1R(h) (Homo sapiens, UniProt P08069).
T2 construct: gene IGF1R
The note with it: atp_concentration=200, read-out: % of control remaining.
Source text: as §1

The target in the next assay is Fyn(h) (Homo sapiens, UniProt P06241). The conditions noted are these: atp_concentration=70, read-out: % of control remaining.
Source text: as §1

Another assay deals with Plk3(h) (Homo sapiens, UniProt Q9H4B4). The note with it: atp_concentration=70, read-out: % of control remaining.
Source text: as §1

Another assay has as its target T3, PDGFRβ(h) (Homo sapiens, UniProt P09619).
T3 construct: gene PDGFRB
The conditions noted are these: atp_concentration=200, read-out: % of control remaining.
Source text: as §1

For a further assay, the target named is PAK2(h) (Homo sapiens, UniProt Q13177). The conditions noted are these: atp_concentration=90, read-out: % of control remaining.
Source text: as §1

In the next assay the target is KDR(h) (Homo sapiens, UniProt P35968). The conditions noted are these: atp_concentration=90, read-out: % of control remaining.
Source text: as §1

Another assay has as its target EphA5(h) (Homo sapiens, UniProt P54756). The conditions noted are these: atp_concentration=10, read-out: % of control remaining.
Source text: as §1

The target in another assay is T4, PKA(h) (Homo sapiens, UniProt P17612).
T4 construct: gene PRKACA
The note with it: atp_concentration=10, read-out: % of control remaining.
Source text: as §1

A further assay addresses SRPK1(h) (Homo sapiens, UniProt Q96SB4). The note with it: atp_concentration=10, read-out: % of control remaining.
Source text: as §1

For a further assay, the target named is T5, ROCK-I(h) (Homo sapiens, UniProt Q13464).
T5 construct: gene ROCK1
The conditions noted are these: atp_concentration=70, read-out: % of control remaining.
Source text: as §1

In a further assay the target is T6, c-RAF(h) (Homo sapiens, UniProt P04049).
T6 construct: gene RAF1
The note with it: atp_concentration=120, read-out: % of control remaining.
Source text: as §1

The target of the next assay is T7, MEK1(h) (Homo sapiens, UniProt Q02750).
T7 construct: gene MAP2K1
The conditions noted are these: atp_concentration=10, read-out: % of control remaining.
Source text: as §1

Another assay addresses T8, eEF-2K(h) (Homo sapiens, UniProt O00418).
T8 construct: gene EEF2K
T8 sequence (O00418 1-725): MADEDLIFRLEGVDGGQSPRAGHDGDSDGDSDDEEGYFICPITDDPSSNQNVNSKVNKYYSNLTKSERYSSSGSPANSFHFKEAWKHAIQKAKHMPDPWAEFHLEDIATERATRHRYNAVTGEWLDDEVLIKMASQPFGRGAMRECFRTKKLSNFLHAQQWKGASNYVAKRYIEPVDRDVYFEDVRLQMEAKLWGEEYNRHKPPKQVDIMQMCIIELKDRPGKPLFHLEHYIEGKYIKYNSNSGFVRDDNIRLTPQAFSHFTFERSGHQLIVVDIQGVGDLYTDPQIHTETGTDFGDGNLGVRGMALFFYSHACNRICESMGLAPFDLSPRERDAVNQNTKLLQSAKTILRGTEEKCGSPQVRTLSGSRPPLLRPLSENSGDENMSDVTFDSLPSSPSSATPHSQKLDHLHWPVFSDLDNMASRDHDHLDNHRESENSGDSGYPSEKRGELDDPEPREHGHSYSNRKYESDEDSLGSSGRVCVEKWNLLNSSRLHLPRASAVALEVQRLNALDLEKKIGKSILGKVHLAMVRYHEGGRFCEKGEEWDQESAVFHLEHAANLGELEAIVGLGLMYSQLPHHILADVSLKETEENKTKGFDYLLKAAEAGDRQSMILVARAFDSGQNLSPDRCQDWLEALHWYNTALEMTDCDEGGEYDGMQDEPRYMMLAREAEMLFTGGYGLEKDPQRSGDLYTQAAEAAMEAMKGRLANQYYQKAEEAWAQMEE
The note with it: atp_concentration=15, read-out: % of control remaining.
Source text: as §1

Consider three molecules from article doi:10.1101/2024.08.19.608619, “Discovery of potent SARS-CoV-2 nsp3 macrodomain inhibitors uncovers lack of translation to cellular antiviral response” (bioRxiv, 2024).

Like-named read-outs stand apart in the source and are kept apart here.

T1 sequence (P11309 whole entry): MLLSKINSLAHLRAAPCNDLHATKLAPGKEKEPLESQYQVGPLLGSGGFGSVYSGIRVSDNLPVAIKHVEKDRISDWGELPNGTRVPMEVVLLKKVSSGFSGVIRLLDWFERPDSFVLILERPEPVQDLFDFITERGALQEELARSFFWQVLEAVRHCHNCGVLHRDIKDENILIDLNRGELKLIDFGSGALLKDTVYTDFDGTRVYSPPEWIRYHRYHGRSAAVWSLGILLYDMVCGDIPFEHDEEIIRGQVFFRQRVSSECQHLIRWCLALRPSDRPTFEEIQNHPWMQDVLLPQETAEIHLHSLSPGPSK
Sequence of Plk3(h) (Q9H4B4 whole entry): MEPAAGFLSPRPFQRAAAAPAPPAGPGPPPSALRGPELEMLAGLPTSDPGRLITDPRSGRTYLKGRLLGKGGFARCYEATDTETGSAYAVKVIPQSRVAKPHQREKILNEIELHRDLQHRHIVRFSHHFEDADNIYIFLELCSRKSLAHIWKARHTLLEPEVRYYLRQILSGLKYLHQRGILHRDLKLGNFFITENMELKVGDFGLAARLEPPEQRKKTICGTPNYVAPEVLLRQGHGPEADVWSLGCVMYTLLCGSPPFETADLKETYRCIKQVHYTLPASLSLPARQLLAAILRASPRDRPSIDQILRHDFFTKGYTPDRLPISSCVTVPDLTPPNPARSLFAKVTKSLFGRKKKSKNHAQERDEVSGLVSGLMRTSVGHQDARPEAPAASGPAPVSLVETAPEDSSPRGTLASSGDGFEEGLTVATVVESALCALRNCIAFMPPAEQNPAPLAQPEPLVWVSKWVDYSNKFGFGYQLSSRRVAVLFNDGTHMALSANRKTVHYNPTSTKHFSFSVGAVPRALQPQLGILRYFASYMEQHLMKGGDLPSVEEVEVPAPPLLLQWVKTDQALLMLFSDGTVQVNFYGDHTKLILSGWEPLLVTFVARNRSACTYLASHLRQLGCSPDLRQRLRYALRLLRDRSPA
Sequence of SRPK1(h) (Q96SB4 whole entry): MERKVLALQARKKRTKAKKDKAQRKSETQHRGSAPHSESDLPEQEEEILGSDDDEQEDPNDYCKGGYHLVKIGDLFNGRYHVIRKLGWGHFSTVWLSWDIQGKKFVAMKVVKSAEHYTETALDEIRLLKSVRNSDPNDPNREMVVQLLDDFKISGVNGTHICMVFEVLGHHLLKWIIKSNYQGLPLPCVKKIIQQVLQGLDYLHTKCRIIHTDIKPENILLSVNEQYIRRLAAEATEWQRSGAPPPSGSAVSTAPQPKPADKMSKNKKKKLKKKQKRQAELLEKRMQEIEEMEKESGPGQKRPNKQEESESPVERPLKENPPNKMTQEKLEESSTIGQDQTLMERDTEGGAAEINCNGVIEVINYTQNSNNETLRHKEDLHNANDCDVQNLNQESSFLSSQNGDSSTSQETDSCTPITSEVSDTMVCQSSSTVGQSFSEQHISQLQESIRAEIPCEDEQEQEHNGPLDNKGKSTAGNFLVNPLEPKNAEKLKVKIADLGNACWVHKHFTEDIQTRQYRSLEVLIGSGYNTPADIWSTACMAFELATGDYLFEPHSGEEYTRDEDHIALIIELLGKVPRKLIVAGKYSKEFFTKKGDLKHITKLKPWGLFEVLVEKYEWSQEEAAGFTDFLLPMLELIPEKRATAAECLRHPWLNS
T3 sequence (P09619 whole entry): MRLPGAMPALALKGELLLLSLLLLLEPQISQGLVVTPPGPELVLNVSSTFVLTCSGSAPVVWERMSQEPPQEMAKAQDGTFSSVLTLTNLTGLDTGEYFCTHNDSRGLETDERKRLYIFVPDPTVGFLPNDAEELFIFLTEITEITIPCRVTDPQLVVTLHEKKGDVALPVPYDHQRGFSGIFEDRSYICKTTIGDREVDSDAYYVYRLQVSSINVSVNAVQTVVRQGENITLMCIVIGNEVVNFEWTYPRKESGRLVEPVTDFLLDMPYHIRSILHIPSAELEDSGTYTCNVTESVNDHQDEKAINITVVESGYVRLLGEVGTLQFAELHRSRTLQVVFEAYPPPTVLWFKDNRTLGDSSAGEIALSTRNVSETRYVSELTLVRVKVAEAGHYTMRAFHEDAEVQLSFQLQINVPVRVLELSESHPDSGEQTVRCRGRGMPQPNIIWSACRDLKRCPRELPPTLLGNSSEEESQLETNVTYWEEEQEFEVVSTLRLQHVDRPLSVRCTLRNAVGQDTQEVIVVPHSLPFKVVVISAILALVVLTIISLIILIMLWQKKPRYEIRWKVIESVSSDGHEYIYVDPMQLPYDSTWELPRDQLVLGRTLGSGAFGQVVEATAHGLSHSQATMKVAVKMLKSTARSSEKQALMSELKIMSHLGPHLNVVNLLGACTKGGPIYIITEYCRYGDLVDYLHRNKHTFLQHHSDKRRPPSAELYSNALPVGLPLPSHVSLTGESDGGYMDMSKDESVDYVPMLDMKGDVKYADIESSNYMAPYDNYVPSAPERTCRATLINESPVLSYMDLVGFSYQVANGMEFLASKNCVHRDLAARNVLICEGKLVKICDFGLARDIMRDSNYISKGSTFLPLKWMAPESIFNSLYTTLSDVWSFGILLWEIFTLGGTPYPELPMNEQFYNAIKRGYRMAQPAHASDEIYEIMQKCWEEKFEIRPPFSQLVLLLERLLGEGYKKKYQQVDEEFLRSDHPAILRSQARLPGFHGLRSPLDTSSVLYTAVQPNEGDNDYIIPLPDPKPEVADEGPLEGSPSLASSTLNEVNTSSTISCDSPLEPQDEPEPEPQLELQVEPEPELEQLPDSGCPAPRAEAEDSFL
Sequence of ALK(h) (Q9UM73 whole entry): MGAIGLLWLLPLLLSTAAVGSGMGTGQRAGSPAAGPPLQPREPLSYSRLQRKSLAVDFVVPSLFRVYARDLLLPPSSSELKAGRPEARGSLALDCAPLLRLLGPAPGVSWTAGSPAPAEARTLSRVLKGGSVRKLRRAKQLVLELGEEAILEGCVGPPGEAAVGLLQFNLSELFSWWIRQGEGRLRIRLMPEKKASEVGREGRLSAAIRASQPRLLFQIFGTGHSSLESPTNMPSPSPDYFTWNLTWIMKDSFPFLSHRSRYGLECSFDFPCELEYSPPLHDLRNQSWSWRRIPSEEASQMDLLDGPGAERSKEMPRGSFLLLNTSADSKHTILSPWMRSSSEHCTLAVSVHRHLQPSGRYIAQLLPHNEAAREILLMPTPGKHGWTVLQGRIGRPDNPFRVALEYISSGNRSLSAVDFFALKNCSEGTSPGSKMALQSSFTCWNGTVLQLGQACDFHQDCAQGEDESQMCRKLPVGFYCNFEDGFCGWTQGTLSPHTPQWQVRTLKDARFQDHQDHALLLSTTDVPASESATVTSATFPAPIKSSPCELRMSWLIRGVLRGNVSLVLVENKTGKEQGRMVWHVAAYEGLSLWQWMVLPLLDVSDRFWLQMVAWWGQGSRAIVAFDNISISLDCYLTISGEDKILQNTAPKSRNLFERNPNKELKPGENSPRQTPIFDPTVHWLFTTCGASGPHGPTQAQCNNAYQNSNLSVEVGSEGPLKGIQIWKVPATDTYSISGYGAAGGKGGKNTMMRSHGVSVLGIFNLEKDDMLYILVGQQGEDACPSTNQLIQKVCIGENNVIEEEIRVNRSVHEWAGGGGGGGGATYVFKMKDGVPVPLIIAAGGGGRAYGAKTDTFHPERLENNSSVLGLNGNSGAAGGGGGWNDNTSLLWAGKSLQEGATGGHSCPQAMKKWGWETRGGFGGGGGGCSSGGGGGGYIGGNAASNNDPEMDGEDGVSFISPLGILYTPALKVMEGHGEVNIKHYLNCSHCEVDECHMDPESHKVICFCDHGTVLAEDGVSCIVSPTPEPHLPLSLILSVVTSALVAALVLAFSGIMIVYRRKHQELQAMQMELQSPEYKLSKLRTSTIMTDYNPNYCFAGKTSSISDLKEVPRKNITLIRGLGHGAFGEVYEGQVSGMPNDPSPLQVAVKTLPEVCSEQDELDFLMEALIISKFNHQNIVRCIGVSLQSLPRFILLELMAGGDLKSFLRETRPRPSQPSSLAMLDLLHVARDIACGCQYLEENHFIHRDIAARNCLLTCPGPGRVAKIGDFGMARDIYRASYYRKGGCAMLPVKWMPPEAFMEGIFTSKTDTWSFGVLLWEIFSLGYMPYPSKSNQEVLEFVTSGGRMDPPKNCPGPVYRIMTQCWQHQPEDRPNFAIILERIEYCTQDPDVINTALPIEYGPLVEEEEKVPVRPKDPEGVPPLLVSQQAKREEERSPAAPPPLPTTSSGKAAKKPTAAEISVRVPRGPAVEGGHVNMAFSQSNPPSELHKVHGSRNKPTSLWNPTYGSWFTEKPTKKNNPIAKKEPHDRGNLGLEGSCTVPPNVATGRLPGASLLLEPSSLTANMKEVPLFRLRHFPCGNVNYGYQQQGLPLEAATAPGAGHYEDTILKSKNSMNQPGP
T6 sequence (P04049 whole entry): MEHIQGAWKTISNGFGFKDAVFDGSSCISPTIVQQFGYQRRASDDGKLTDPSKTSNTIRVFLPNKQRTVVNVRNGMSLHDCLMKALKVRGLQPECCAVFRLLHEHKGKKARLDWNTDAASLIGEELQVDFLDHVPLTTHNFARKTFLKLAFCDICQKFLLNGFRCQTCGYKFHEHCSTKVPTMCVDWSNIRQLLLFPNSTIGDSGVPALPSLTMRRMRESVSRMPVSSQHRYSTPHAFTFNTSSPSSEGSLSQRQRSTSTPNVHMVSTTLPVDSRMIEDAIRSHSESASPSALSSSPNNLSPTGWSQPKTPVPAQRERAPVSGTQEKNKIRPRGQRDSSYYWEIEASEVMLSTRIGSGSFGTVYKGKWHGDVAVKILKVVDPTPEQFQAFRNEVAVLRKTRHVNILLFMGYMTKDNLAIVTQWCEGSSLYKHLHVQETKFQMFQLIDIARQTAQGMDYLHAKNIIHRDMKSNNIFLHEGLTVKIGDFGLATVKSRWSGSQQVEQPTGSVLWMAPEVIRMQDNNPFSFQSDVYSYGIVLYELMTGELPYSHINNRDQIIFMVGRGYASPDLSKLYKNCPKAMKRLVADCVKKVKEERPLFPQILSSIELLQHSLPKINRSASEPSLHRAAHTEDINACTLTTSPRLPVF

Regarding `Cc1nn(C)cc1-c1cc2c(NC(c3ccc4c(c3)S(=O)(=O)CCC4)C(C)C)ncnc2[nH]1` (stereo not drawn) [ASAP-0011446], the remaining activity at 10 µM on Pim-1(h) (batch_name=ASAP-0011446-002) stood at 95%; on ALK(h) (batch_name=ASAP-0011446-002) it was 99%; at IGF-1R(h) (batch_name=ASAP-0011446-002), 97%; on Fyn(h) (batch_name=ASAP-0011446-002), 32%; on Plk3(h) (batch_name=ASAP-0011446-002), 104%; at PDGFRβ(h) (batch_name=ASAP-0011446-002), 97%. The remaining activity at 10 µM worked out at 100% on PAK2(h) (batch_name=ASAP-0011446-002); 88% on KDR(h) (batch_name=ASAP-0011446-002); 74% at EphA5(h) (batch_name=ASAP-0011446-002); 95% at PKA(h) (batch_name=ASAP-0011446-002); 104% at SRPK1(h) (batch_name=ASAP-0011446-002); 103% on ROCK-I(h) (batch_name=ASAP-0011446-002). Moreover, the remaining activity at 10 µM is 93% at c-RAF(h) (batch_name=ASAP-0011446-002), 99% at MEK1(h) (batch_name=ASAP-0011446-002) and 98% at eEF-2K(h) (batch_name=ASAP-0011446-002).
Regarding `C[C@H](C(=O)O)[C@@H](NC(=O)c1ncnc2[nH]ccc12)c1ccc(Br)cc1` [ASAP-0014722], the remaining activity at 10 µM on Pim-1(h) (batch_name=ASAP-0014722-002) came to 95%; at ALK(h) (batch_name=ASAP-0014722-002), 99%; on IGF-1R(h) (batch_name=ASAP-0014722-002), 95%; at Fyn(h) (batch_name=ASAP-0014722-002) it was 98%; at Plk3(h) (batch_name=ASAP-0014722-002), 98%; at PDGFRβ(h) (batch_name=ASAP-0014722-002) it was 110%. The remaining activity at 10 µM at PAK2(h) (batch_name=ASAP-0014722-002) turned out to be 95%; on KDR(h) (batch_name=ASAP-0014722-002), 77%; on EphA5(h) (batch_name=ASAP-0014722-002) it was 99%; at PKA(h) (batch_name=ASAP-0014722-002), 87%; at SRPK1(h) (batch_name=ASAP-0014722-002), 97%; at ROCK-I(h) (batch_name=ASAP-0014722-002) it was 90%. The remaining activity at 10 µM at c-RAF(h) (batch_name=ASAP-0014722-002) was determined as 108%; on MEK1(h) (batch_name=ASAP-0014722-002), 89%; at eEF-2K(h) (batch_name=ASAP-0014722-002), 85%.
Turning to `COc1ccc([C@H](Cc2nnn[nH]2)NC(=O)c2ncnc3[nH]ccc23)cc1` [ASAP-0015381], the remaining activity at 10 µM at Pim-1(h) (batch_name=ASAP-0015381-001) turned out to be 99%; at ALK(h) (batch_name=ASAP-0015381-001), 106%; on IGF-1R(h) (batch_name=ASAP-0015381-001), 103%; at Fyn(h) (batch_name=ASAP-0015381-001), 102%; at Plk3(h) (batch_name=ASAP-0015381-001), 102%; on PDGFRβ(h) (batch_name=ASAP-0015381-001), 103%. Also, the remaining activity at 10 µM at PAK2(h) (batch_name=ASAP-0015381-001) was 107%; at KDR(h) (batch_name=ASAP-0015381-001) it was 97%; on EphA5(h) (batch_name=ASAP-0015381-001) it was 102%; at PKA(h) (batch_name=ASAP-0015381-001), 88%; on SRPK1(h) (batch_name=ASAP-0015381-001), 103%; on ROCK-I(h) (batch_name=ASAP-0015381-001) it was 103%. The remaining activity at 10 µM on c-RAF(h) (batch_name=ASAP-0015381-001) stood at 103%; at MEK1(h) (batch_name=ASAP-0015381-001) it was 100%; at eEF-2K(h) (batch_name=ASAP-0015381-001) it was 96%.
